Data reported in patent US20230391765A1, “HETEROBIFUNCTIONAL COMPOUNDS AS DEGRADERS OF ENL” (ICAHN SCHOOL OF MEDICINE AT MOUNT SINAI, priority 2020, published 2023).

Tests used:
[1] = test system: ENL target genes; experiment: RT-qPCR of ENL target genes in MOLM13 cells; type: cell-based; details: MOLM13 cells, 8 μM for 24 h
Protocol: MOLM13 cells were treated with LQ076-122 (FIG. 14A) and LQ081-108 (FIG. 14B) at 0.5, 1, 2, 4, and 8 μM for 24 h. […] RT-qPCR analysis was performed to detect the mRNA levels of selected ENL target genes.
Total RNA was extracted using the RNeasy Plus kit (Qiagen) and reverse-transcribed using the iScript cDNA Synthesis kit (Bio-Rad). RT-qPCR was performed using the Power SYBR Green PCR Master Mix (Applied Biosystems) on the CFX96 Real-Time PCR system (Bio-Rad). Gene expressions were calculated following normalization to 18s rRNA amounts using the comparative cycle threshold (Ct) method.

[2] = test system: MV4; 11 cells; experiment: Apoptosis assay (FITC Annexin V), MV4; 11 cells; type: cell-based; details: 11 cells, 1, 2 and 4 μM for 24 h
Protocol: (§1) Apoptotic cells were measured by the FITC Annexin V Apoptosis Detection Kit (BD Biosciences).
(§2) MV4; 11 or MOLM13 cells were seeded at 0.2×10^6 cells/mL density. Cells were treated with DMSO or ENL degraders at indicated concentrations. Each treatment was done in triplicates. After 24 h treatment, cells were collected and washed with ice-cold PBS once and resuspended in 250 μL of 1× binding buffer containing 5 μL of FITC-Annexin V and PI (BD Biosciences). After 15 min incubation at room temperature in the dark, 250 μL of 1× binding buffer was added and flow cytometry analysis was performed.

[3] = test system: MOLM13 cells; experiment: Apoptosis assay (FITC Annexin V), MOLM13 cells; type: cell-based; details: MOLM13 cells, 1, 2 and 4 μM for 24 h
Protocol: as §1, §2

[4] = test system: ENL-dependent MLL-rearranged leukemia cells; details: cited from earlier work

In the case of C[C@H]1CCCN1Cc1nc2cc(NC(=O)c3ccc4c(cnn4C)c3)ccc2[nH]1 [SGC-iMLLT, reference compound], the “ENL target gene expression (mRNA levels)” value [1] is reported as “did not dramatically affect these genes”, the induction of apoptosis [2] is reported as “but not the negative control compound LQ108-4 or SGC-iMLLT, induced apoptosis” and the induction of apoptosis [3] is reported as “but not the negative control compound LQ108-4 or SGC-iMLLT, induced apoptosis”. The “inhibition of cell growth” value [4] was “largely ineffective in inhibiting the growth”.
